Patent publication US20050260126A1 (priority 2002, published 2005)
Structures can show the parent of a compound that is named as a salt.

Experiments:
ScN2a cells = conditions: for Concentration of inhibiting cell proliferation TC: mouse
[1] = tested on: abnormal prion proteins in ScN2a cells with persistent infection of scrapie; experiment: cells; assay type: cell-based, mouse; conditions: for IC50: Mus musculus, ScN2a, 96 h, read-out: Inhibitory effects on producing abnormal prion protein IC50; for Inhibitory effects on producing abnormal prion proteins (in words): ScN2a cells
[2] = Slc:ICR, mouse, not told, iv
in vivo = conditions: male, Crj:CD1, mouse, iv

SMILES	Concentration of inhibiting cell proliferation TC (ScN2a cells)	IC50 [1] [nM]	Permeability into the brain: content in Brain [2]	Permeability into the brain: content in Plasma [2]	MTD (in vivo) [mg/kg]	TC and safety concentration margin (in words) (ScN2a cells)	Inhibitory effects on producing abnormal prion proteins (in words) [1]
Clc1ccc(/C=C/c2nc3ccccc3o2)cc1 [BF-191, 2-[2-(4-chlorophenyl)ethenyl]benzoxazole]	>10 µM	4	12.0 % ID/g or ml	2.1 % ID/g or ml			
Cc1nc(/C=C/c2ccc(N(C)C)cc2O)oc1COCCF [BF-210]					≥ 10		
CN(C)c1ccc(/C=C/c2ccc3ccccc3n2)c(O)c1 [BF-193, 2-[2-(2-hydroxy-4-dimethylaminophenyl)ethenyl]quinoline]	10 µM	1.6	5.2 % ID/g or ml	2.7 % ID/g or ml	≥ 10		
CNc1ccc(C=Cc2ccc3ccccc3n2)c(O)c1 [BF-198, 2-[2-(2-hydroxyl-4-methylaminophenyl)-ethenyl]quinoline]	10 µM	0.8	9.9 % ID/g or ml	4.7 % ID/g or ml	≥ 10		
CN(C)c1ccc(/C=C/c2nc3ccccc3s2)c(O)c1 [BF-192, 2-[2-(2-hydroxy-4-dimethylaminophenyl)ethenyl]benzothiazole]	>10 µM	1.6	5.5 % ID/g or ml	2.6 % ID/g or ml	≥ 10		
CNc1ccc(/C=C/c2nc3ccccc3o2)c(N)c1 [BF-207, 2-(2-amino-4-N-methyl-aminostyryl)benzoxazole]					≥ 10		
CNc1ccc(/C=C/C=C/c2nc3ccccc3o2)cc1 [BF-185, 2-[[4-(4-methylamino)-phenyl]-1,3-butadienyl]-benzoxazole]			3.9 % ID/g or ml	1.0 % ID/g or ml	≥ 10		
CNc1ccc(-c2nc3ccc(O)cc3s2)cc1 [BF-172, 2-(4-methylamino)-phenyl-6-hydroxybenzo thiazole]	>10 µM	1.6	4.9 % ID/g or ml	2.9 % ID/g or ml	≥ 10		
Fc1ccc(/C=C/c2nc3ccccc3s2)cc1 [Compound N-453, 2-[2-(4-fluorophenyl)ethenyl]benzothiazole]	100 µM	1	5.0 % ID/g or ml	1.4 % ID/g or ml	≥ 10	higher TCs, therefore higher safety concentration margins	highly inhibitory effects
Cc1nc(/C=C/c2cnc(N(C)C)s2)oc1C [BF-214, 2-(dimethylamino)-5-[2-(4,5-dimethyloxazol-2-yl)ethenyl]thiazole]			9.0 % ID/g or ml	2.1 % ID/g or ml	≥ 10		
CNc1ccc(/C=C/C=C/C=C/c2ccc3ccccc3n2)cc1 [BF-189, 1-(4-methylamino-phenyl)-6-(2-quinolyl)-1,3,5-hexatriene]	100 µM	100			≥ 10		
CNc1ccc(/C=C/C=C/c2nc3ccccc3[nH]2)cc1 [BF-188, 2-[[4-(4-methylamino)-phenyl]-1,3-butadienyl]-benzimidazole]			4.8 % ID/g or ml	1.7 % ID/g or ml	≥ 10		
CN(C)c1ccc(/C=C/c2nc3ccccc3o2)c(O)c1 [BF-206, 2-(4-dimethylamino-2-hydroxystyryl)-benzoxazole]	>10 µM	2			≥ 10		
CN(C)c1ccc2cc(-c3nc4cc(F)ccc4[nH]3)ccc2c1 [BF-153, 5-fluoro-2-(6-dimethyl-aminonaphthalen-2-yl)benzimidazole]	10 µM	1			3 to 10		highly inhibitory effects
CN(C)c1ncc(/C=C/c2nc3ccccc3o2)s1 [BF-197, 2-[2-(2-dimethyl-aminothiazol-5-yl)-ethenyl]benzoxazole]	10 µM	16	15 % ID/g or ml	1.9 % ID/g or ml	≥ 10		
CC1=NN(c2ccc(/C=C/c3nc4ccccc4o3)cc2)C(=O)C1 [BF-181, 2-[2-[4-(3-methyl-5-oxo-2-pyrrozolin-1-yl)-phenyl]ethenyl]benzoxazole]					3 to 10		
CN(C)c1ncc(-c2nc3ccccc3o2)s1 [BF-225, 2-(2-dimethylamino-thiazol-5-yl)benzoxazole]					≥ 10		
Nc1ccc(/C=C/c2ccc3ccccc3n2)cc1 [BF-177, 2-[2-(4-aminophenyl)ethenyl]quinoline]			8.2 % ID/g or ml	1.6 % ID/g or ml	≥ 10		

SMILES	Concentration of inhibiting cell proliferation TC (ScN2a cells)	IC50 [1] [nM]	Permeability into the brain: content in Brain [2]	Permeability into the brain: content in Plasma [2]	MTD (in vivo) [mg/kg]	TC and safety concentration margin (in words) (ScN2a cells)	Inhibitory effects on producing abnormal prion proteins (in words) [1]
Cc1nc(/C=C/C=C/c2ccc(N(C)C)cc2)oc1C [BF-228, 2-[[4-(4-dimethylamino)-phenyl]-1,3-butadienyl]-3,4-dimethyloazole]	>10 µM	16			≥ 10		
CN(C)c1ncc(/C=C/c2nc3ccccc3o2)o1 [BF-230, 2-[2-(2-dimethylamino-oxazol-5yl)-ethenyl]benzoxazole]					≥ 10		
CN(C)c1ncc(/C=C/c2nc3ccccc3s2)s1 [BF-196, 2-[2-(2-dimethylamino-thiazol-5-yl)ethenyl]-benzothiazole]	>10 µM	16	19 % ID/g or ml	1.8 % ID/g or ml			
CN(C)c1cnc(/C=C/c2nc3ccccc3o2)o1 [BF-215, 2-[2-(5-dimethylamino-oxazol-2-yl)-ethenyl]-benzoxazole]			8.8 % ID/g or ml	2.5 % ID/g or ml	≥ 10		
CNc1ccc(C=Cc2ccc3cc(I)ccc3n2)c(O)c1 [BF-199, 2-[2-(2-hydroxyl-4-methylaminophenyl)-ethenyl]-6-iodoquinoline]	>10 µM	0.8			≥ 10		
c1ccc2cc(-c3cn4ccccc4n3)ccc2c1 [Compound N-437, 2-(2-naphthyl)imidazo-[1,2-a]pyridine hydrobromide]	100 µM	1			≥ 10		
CN(C)c1ccc(-c2nc3ccccc3s2)cc1 [BF-150, 2-(4-dimethylamino-phenyl) benzothiazole]	10 µM	1	11.2 % ID/g or ml	1.5 % ID/g or ml			highly inhibitory effects
CN(C)c1ccc(/C=C/c2cccs2)cc1 [BF-141, 2-[2-(4-dimethylamino-phenyl)ethenyl]thiophene]	10 µM	1			3 to 10		highly inhibitory effects
Cc1nc(/C=C/c2ccc(N(C)C)cc2O)oc1CO [BF-200, 2-[2-[(4-dimethylamino-2-hydroxy)phenyl]-ethenyl]-5-hydroxy methyl-4-methyloxazole]					≥ 10		
Nc1ccc(/C=C/c2nc3cc(I)ccc3o2)cc1 [BF-173, 2-(4-amino)styryl-5-iodobenzoxazole]	100 µM	100			≥ 10		
CNc1ccc(-c2ccc3ccccc3n2)cc1 [BF-158, 2-[(4-methylamino)-phenyl]quinoline]	100 µM	10	9.7 % ID/g or ml	1.8 % ID/g or ml			
Nc1ccc(-c2ccc3cc(CF)ccc3n2)c(O)c1 [BF-213, 2-[(4-amino-2-hydroxy)-phenyl]-6-(fluoro-methyl)quinoline]	10 µM	2			≥ 10		
CN(C)c1ccc(-c2cn3cc(I)ccc3n2)cc1 [BF-130, 2-(4-dimethylamino) phenyl-6-iodoimidazo-[1,2-a]pyridine]	100 µM	1	7.3 % ID/g or ml	2.4 % ID/g or ml		higher TCs, therefore higher safety concentration margins	highly inhibitory effects
Clc1ccc2nc(-c3cccs3)cn2c1 [Compound N-471, 2-(2-thienyl)-6-chloro imidazo[1,2-a]pyridine]	≧100 μM	1000					
Clc1ccc2nc(-c3ccccc3)c(Br)n2c1 [Compound N-468, 2-phenyl-3-bromo-6-chloroimidazo[1,2-a]pyridine]	100 µM	1000					
Nc1ccc(-c2ccc3ccccc3n2)cc1 [BF-170, 2-[(4-amino)phenyl]-quinoline]	100 µM	100	9.1 % ID/g or ml	1.4 % ID/g or ml			
CN(C)c1ncc(/C=C/C=C/c2nc3ccccc3[nH]2)s1 [BF-231, 2-[4-(2-dimethylamino-thiazol-5-yl)-1,3-butadienyl]benzimidazole]	>10 µM	1.6			≥ 10		
